Measurements reported in article PMC10924921, “Mi-2β promotes immune evasion in melanoma by activating EZH2 methylation” (Nature Communications, 2024).

Assays:
Assay in all cases: biochemical
Set-up in all cases: KINOMEscan active-site competition binding panel (468 kinase assays), per cent of control at 1000 nM
Conditions in all cases: KINOMEscan per cent of control (binding competition); read-out: Percent Control
RIPK2 = RIPK2 (Homo sapiens, UniProt O43353)
Source text: (§1) Figure S7 / Percent Control

ANKK1 = ANKK1 (Homo sapiens, UniProt Q8NFD2)
Source text: as §1

BRAF = BRAF (Homo sapiens, UniProt P15056)
Source text: as §1

CSNK1E = CSNK1E (Homo sapiens, UniProt P49674)
Source text: as §1

EGFR = EGFR (Homo sapiens, UniProt P00533)
Source text: as §1

DDR2 = DDR2 (Homo sapiens, UniProt Q16832)
Source text: as §1

p38-alpha = molecular target: T1, p38-alpha (Homo sapiens, UniProt Q16539)
T1 construct: gene MAPK14
Source text: as §1

CAMK2D = CAMK2D (Homo sapiens, UniProt Q13557)
Source text: as §1

LCK = LCK (Homo sapiens, UniProt P06239)
Source text: as §1

ROCK1 = ROCK1 (Homo sapiens, UniProt Q13464)
Source text: as §1

EGFR(L858R) = EGFR(L858R) (Homo sapiens, UniProt P00533, L858R)
Source text: as §1

LRRK2(G2019S) = LRRK2(G2019S) (Homo sapiens, UniProt Q5S007, G2019S)
Source text: as §1

[1] = molecular target: T2, ABL1(F317I)-nonphosphorylated (Homo sapiens, UniProt P00519, F317I)
T2 construct: nonphosphorylated
Source text: as §1

PIM3 = PIM3 (Homo sapiens, UniProt Q86V86)
Source text: as §1

CLK4 = CLK4 (Homo sapiens, UniProt Q9HAZ1)
Source text: as §1

CAMK2A = CAMK2A (Homo sapiens, UniProt Q9UQM7)
Source text: as §1

ABL2 = ABL2 (Homo sapiens, UniProt P42684)
Source text: as §1

FLT3-autoinhibited = FLT3-autoinhibited (Homo sapiens, UniProt P36888)
Source text: as §1

DYRK1A = DYRK1A (Homo sapiens, UniProt Q13627)
Source text: as §1

AKT2 = AKT2 (Homo sapiens, UniProt P31751)
Source text: as §1

MYO3A = MYO3A (Homo sapiens, UniProt Q8NEV4)
Source text: as §1

MET = MET (Homo sapiens, UniProt P08581)
Source text: as §1

p38-gamma = molecular target: T3, p38-gamma (Homo sapiens, UniProt P53778)
T3 construct: gene MAPK12
Source text: as §1

CDKL2 = CDKL2 (Homo sapiens, UniProt Q92772)
Source text: as §1

OSR1 = molecular target: T4, OSR1 (Homo sapiens, UniProt O95747)
T4 construct: gene OXSR1
Source text: as §1

EGFR(L858R), sequence (P00533 whole entry L858R): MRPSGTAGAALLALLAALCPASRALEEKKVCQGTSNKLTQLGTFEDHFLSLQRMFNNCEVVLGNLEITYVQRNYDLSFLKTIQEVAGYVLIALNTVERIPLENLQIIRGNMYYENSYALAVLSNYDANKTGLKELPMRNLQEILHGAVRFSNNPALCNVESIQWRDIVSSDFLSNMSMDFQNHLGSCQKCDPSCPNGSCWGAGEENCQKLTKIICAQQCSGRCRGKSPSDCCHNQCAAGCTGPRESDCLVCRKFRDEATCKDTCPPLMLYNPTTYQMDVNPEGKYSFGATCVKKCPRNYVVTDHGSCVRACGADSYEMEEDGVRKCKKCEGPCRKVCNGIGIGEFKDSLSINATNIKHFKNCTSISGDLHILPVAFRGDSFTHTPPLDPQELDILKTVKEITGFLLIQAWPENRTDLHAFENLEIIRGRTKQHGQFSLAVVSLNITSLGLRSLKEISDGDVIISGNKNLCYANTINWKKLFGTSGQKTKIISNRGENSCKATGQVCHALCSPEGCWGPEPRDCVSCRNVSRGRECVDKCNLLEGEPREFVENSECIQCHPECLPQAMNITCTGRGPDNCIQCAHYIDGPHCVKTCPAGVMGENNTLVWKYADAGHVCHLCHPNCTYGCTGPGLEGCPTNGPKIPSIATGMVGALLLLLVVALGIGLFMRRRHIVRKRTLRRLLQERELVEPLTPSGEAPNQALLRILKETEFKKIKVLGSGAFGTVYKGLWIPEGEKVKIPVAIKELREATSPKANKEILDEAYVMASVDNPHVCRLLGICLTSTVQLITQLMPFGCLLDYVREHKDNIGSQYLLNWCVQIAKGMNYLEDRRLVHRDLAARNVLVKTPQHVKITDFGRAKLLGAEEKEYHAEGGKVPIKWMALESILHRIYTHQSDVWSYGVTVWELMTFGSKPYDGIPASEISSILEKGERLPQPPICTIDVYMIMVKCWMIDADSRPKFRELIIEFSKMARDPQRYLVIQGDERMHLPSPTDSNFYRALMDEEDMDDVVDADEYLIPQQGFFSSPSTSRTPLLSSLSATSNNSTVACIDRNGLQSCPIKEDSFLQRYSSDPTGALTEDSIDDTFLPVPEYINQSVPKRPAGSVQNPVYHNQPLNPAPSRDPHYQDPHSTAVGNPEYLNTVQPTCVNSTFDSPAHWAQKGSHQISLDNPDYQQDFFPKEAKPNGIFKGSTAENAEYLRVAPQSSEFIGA
FLT3-autoinhibited, sequence (P36888 whole entry): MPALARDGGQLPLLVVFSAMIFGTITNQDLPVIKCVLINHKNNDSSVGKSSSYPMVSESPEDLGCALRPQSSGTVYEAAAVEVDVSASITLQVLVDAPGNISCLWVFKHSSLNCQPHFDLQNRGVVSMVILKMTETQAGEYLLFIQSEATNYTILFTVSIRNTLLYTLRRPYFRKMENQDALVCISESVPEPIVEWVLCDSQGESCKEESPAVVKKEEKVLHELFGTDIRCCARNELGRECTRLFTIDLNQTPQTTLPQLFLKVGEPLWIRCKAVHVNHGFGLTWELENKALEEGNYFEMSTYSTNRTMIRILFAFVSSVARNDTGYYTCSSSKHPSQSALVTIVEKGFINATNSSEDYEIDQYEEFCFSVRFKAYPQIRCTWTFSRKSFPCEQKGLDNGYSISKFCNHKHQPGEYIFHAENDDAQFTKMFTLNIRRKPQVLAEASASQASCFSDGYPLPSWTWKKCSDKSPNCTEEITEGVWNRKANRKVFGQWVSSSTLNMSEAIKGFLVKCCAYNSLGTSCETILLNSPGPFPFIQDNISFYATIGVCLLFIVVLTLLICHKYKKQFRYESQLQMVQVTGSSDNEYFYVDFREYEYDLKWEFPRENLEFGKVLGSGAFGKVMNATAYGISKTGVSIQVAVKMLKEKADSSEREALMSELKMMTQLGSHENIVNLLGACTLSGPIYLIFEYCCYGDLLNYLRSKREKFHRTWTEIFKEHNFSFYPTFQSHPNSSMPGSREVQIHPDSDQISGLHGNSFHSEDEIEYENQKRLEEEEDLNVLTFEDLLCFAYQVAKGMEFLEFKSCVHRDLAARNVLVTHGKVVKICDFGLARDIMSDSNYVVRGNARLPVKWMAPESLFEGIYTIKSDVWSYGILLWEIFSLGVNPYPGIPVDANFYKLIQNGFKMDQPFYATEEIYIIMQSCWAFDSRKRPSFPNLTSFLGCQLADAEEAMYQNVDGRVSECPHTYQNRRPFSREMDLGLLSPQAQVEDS
LRRK2(G2019S), sequence (Q5S007 whole entry G2019S): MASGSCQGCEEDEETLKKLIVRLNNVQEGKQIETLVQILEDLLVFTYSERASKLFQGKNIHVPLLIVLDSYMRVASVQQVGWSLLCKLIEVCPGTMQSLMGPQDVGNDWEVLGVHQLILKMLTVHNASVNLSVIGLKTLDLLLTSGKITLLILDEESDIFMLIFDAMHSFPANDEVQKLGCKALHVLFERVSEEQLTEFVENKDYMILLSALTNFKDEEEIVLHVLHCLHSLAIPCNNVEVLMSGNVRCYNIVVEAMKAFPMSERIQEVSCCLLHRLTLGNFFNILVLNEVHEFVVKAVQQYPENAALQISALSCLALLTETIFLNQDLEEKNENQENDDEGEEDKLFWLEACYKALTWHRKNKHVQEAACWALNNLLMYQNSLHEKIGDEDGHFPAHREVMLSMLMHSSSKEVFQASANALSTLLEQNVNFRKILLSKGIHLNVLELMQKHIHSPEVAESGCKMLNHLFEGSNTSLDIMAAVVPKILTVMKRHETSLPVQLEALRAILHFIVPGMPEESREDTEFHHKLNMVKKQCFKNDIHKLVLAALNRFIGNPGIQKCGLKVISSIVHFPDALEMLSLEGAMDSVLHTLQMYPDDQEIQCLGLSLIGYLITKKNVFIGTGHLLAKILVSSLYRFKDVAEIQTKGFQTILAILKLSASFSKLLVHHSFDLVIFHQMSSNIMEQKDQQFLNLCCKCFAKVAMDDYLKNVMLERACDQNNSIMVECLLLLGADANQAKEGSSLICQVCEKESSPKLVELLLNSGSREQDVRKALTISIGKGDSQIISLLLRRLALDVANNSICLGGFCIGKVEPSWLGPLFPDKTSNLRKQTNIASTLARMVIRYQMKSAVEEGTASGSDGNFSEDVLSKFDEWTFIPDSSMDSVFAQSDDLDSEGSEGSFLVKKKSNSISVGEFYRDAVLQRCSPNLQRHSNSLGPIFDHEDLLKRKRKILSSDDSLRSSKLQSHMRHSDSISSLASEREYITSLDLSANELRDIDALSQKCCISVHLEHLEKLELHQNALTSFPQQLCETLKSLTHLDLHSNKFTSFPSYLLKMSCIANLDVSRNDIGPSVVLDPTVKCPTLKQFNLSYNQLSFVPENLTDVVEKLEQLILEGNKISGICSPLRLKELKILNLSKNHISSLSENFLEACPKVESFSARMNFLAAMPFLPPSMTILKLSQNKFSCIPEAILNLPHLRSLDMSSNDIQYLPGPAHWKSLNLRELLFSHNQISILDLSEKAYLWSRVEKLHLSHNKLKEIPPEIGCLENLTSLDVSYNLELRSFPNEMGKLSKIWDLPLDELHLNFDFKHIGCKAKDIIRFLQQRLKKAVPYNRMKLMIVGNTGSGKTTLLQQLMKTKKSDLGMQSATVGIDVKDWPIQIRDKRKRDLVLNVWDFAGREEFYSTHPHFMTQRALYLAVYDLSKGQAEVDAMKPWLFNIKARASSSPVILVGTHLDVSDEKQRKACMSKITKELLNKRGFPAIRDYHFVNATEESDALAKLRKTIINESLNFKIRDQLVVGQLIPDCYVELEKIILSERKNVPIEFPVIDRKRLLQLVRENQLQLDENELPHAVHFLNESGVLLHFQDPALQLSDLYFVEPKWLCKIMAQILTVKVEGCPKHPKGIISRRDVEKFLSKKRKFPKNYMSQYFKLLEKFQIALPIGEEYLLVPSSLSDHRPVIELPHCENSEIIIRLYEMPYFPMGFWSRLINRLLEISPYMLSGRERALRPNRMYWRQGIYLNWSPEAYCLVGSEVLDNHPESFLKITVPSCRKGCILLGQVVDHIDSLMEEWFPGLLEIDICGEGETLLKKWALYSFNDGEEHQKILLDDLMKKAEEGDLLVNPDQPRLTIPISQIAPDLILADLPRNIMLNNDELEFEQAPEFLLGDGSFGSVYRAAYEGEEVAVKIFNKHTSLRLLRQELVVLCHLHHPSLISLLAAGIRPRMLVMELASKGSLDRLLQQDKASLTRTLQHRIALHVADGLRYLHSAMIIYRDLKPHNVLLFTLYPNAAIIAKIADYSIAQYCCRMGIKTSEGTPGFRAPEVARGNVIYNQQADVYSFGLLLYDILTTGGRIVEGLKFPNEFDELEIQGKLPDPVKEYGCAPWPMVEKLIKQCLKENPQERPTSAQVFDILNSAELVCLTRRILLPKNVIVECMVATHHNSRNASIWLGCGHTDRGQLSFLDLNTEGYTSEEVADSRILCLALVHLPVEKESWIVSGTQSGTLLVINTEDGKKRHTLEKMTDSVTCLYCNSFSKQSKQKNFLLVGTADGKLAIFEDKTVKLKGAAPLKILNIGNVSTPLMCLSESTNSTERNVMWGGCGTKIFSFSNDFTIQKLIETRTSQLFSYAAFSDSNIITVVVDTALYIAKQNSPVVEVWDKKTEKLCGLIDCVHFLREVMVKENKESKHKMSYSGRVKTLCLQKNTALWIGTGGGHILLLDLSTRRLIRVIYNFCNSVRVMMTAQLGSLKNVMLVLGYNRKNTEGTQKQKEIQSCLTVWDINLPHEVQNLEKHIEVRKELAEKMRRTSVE
T1 sequence (Q16539 whole entry): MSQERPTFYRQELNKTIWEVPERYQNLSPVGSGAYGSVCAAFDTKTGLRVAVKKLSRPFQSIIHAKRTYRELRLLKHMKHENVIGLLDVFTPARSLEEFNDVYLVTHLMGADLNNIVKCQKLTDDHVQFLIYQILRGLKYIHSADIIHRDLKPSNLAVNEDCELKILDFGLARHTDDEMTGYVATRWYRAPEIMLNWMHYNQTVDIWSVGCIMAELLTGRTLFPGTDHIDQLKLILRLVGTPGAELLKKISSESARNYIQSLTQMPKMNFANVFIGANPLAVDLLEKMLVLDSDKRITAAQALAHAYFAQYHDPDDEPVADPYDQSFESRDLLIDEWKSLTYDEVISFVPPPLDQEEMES

Cn1c(=O)[nH]c2ccc(-c3cccc(C(=O)NC4CCn5ccnc5C4)c3)cc21 (stereo not shown) [Z36-MP5]
remaining binding at 1 µM (RIPK2): 94% | remaining binding at 1 µM (ANKK1): 60% | remaining binding at 1 µM (BRAF): 88% | remaining binding at 1 µM (CSNK1E): 49% | remaining binding at 1 µM (EGFR): 97% | remaining binding at 1 µM (DDR2): 66% | remaining binding at 1 µM (p38-alpha): 63% | remaining binding at 1 µM (CAMK2D): 89% | remaining binding at 1 µM (LCK): 49% | remaining binding at 1 µM (ROCK1): 54% | remaining binding at 1 µM (EGFR(L858R)): 99% | remaining binding at 1 µM (LRRK2(G2019S)): 59% | remaining binding at 1 µM [1]: 85% | remaining binding at 1 µM (PIM3): 85% | remaining binding at 1 µM (CLK4): 69% | remaining binding at 1 µM (CAMK2A): 87% | remaining binding at 1 µM (ABL2): 98% | remaining binding at 1 µM (FLT3-autoinhibited): 51% | remaining binding at 1 µM (DYRK1A): 60% | remaining binding at 1 µM (AKT2): 89% | remaining binding at 1 µM (MYO3A): 100% | remaining binding at 1 µM (MET): 96% | remaining binding at 1 µM (p38-gamma): 78% | remaining binding at 1 µM (CDKL2): 68% | remaining binding at 1 µM (OSR1): 73%
